Experimental data: the NIST ThermoML archive (doi:10.1021/je060150a)

Legend:
[1] = xn = mol fraction of the nth substance listed; settings: 101 kPa, Liquid
[2] = Liquid; for mass density / viscosity: 101 kPa
[3] = refractive index (Na D-line) (dimensionless); settings: 101.33 kPa, Liquid, Standard Abbe refractometry

CCC(C)=O [butanone] + ClC(Cl)Cl
[1], x2 = 0
Settings | mass density [kg/m3] | viscosity [mPa·s]
283.15 K | 815.9 | 0.472
293.15 K | 805.5 | 0.423
303.15 K | 795.1 | 0.382
313.15 K | 784.3 | 0.347

ClC(Cl)Cl [trichloromethane] + CCC(C)=O
[1]
Settings | mass density, 283.15 K [kg/m3] | mass density, 293.15 K [kg/m3] | mass density, 303.15 K [kg/m3] | mass density, 313.15 K [kg/m3] | viscosity, 283.15 K [mPa·s] | viscosity, 293.15 K [mPa·s] | viscosity, 303.15 K [mPa·s] | viscosity, 313.15 K [mPa·s]
x1 = 0.0906 | 872.7 | 861.7 | 850.7 | 839.3 | 0.528 | 0.475 | 0.419 | 0.385
x1 = 0.1806 | 930.4 | 918.7 | 907.1 | 895.1 | 0.588 | 0.526 | 0.468 | 0.42
x1 = 0.272 | 990.2 | 977.9 | 965.6 | 952.9 | 0.627 | 0.556 | 0.499 | 0.451
x1 = 0.3661 | 1053.3 | 1040.2 | 1027.2 | 1013.7 | 0.66 | 0.594 | 0.53 | 0.477
x1 = 0.4551 | 1113.9 | 1100.2 | 1086.4 | 1072.3 | 0.692 | 0.62 | 0.553 | 0.498
x1 = 0.549 | 1179.5 | 1165 | 1150.5 | 1135.5 | 0.711 | 0.633 | 0.565 | 0.51
x1 = 0.633 | 1238.9 | 1223.7 | 1208.5 | 1192.7 | 0.712 | 0.636 | 0.571 | 0.515
x1 = 0.7035 | 1289.3 | 1273.6 | 1257.7 | 1241.3 | 0.717 | 0.631 | 0.566 | 0.513
x1 = 0.7973 | 1357.5 | 1340.7 | 1323.9 | 1306.6 | 0.701 | 0.63 | 0.566 | 0.51
x1 = 0.9068 | 1437.7 | 1419.8 | 1401.8 | 1383.4 | 0.674 | 0.61 | 0.546 | 0.491
x1 = 1 | 1507.3 | 1488.4 | 1469.4 | 1450 | 0.629 | 0.573 | 0.516 | 0.468

CCC(C)=O [butanone]
Settings | mass density, [2] [kg/m3] | refractive index, [3] | vapor or sublimation pressure, [2] [kPa] | viscosity, [2] [mPa·s]
283.15 K | 815.9 | 1.384 | – | 0.472
293.15 K | 805.5 | 1.37888 | – | 0.423
303.15 K | 795.1 | 1.37383 | 15.74 | 0.382
313.15 K | 784.3 | 1.36856 | – | 0.347

ClC(Cl)Cl [trichloromethane]
Settings | mass density, [2] [kg/m3] | refractive index, [3] | vapor or sublimation pressure, [2] [kPa] | viscosity, [2] [mPa·s]
283.15 K | 1507.3 | 1.45189 | – | 0.629
293.15 K | 1488.4 | 1.44589 | – | 0.573
303.15 K | 1469.4 | 1.43987 | 32.19 | 0.516
313.15 K | 1450 | 1.43386 | – | 0.468
